Assay results published in the supplement of paper PMC10307832.

Experiments:
Assay in all cases: relative viability (nuclei count vs DMSO), 5 days (fraction); higher = more cells survive
[1] = compound: CS(=O)(=O)CCNCc1ccc(-c2ccc3ncnc(Nc4ccc(OCc5cccc(F)c5)c(Cl)c4)c3c2)o1 [Lapatinib] + CC(=O)Nc1cccc(-n2c(=O)n(C3CC3)c(=O)c3c(Nc4ccc(I)cc4F)n(C)c(=O)c(C)c32)c1 [Trametinib] (partner 0.02 µM)
Method in brief: (§1)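 Relative viability equals treated-well nuclei counts divided by vehicle-well nuclei counts. Counts came from 4× images of lung cancer cell lines grown in 1536-well plates for 5 days after pin-tool dosing on the day after seeding. Dosing used one drug alone or a fixed anchor-drug dose plus five library-drug doses (not always all listed) in √10 steps, and values are medians of duplicate plates.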

[2] = compound: CS(=O)(=O)CCNCc1ccc(-c2ccc3ncnc(Nc4ccc(OCc5cccc(F)c5)c(Cl)c4)c3c2)o1 [Lapatinib] + COc1cccc2cc(-c3nc([C@H]4CC[C@H](C(=O)O)CC4)n4ncnc(N)c34)[nH]c12 [OSI-027] (partner 0.5 µM)
Method in brief: as §1

[3] = compound: CS(=O)(=O)CCNCc1ccc(-c2ccc3ncnc(Nc4ccc(OCc5cccc(F)c5)c(Cl)c4)c3c2)o1 [Lapatinib] + C[C@]1(O)C[C@@H](c2nc(-c3ccc4ccc(-c5ccccc5)nc4c3)c3c(N)nccn32)C1 [Linsitinib] (partner 1 µM)
Method in brief: as §1

[4] = compound: CS(=O)(=O)CCNCc1ccc(-c2ccc3ncnc(Nc4ccc(OCc5cccc(F)c5)c(Cl)c4)c3c2)o1 [Lapatinib] + O=C(c1cc(Cc2n[nH]c(=O)c3ccccc23)ccc1F)N1CCN(C(=O)C2CC2)CC1 [Olaparib] (partner 8 µM)
Method in brief: as §1

Row | Cell Line | relative viability ([1]; first compound 0.06325 µM) | relative viability ([1]; first compound 0.2 µM) | relative viability ([1]; first compound 0.6325 µM) | relative viability ([1]; first compound 2 µM) | relative viability ([2]; first compound 0.06325 µM) | relative viability ([2]; first compound 0.2 µM) | relative viability ([2]; first compound 0.6325 µM) | relative viability ([2]; first compound 2 µM) | relative viability ([3]; first compound 0.06325 µM) | relative viability ([3]; first compound 0.2 µM) | relative viability ([3]; first compound 0.6325 µM) | relative viability ([3]; first compound 2 µM) | relative viability ([4]; first compound 0.06325 µM) | relative viability ([4]; first compound 0.2 µM) | relative viability ([4]; first compound 0.6325 µM) | relative viability ([4]; first compound 2 µM) | relative viability ([1]; first compound 0.02 µM) | relative viability ([2]; first compound 0.02 µM) | relative viability ([3]; first compound 0.02 µM) | relative viability ([4]; first compound 0.02 µM)
1 | HCC-366 | 0.293 | 0.253 | 0.371 | 0.2 | 0.58 | 0.838 | 0.859 | 0.373 | 0.404 | 0.702 | 0.746 | 0.472 | 0.411 | 0.38 | 0.38 | 0.251 |  |  |  | 
2 | LK-2 |  | 0.782 | 0.663 | 0.832 |  | 0.228 | 0.238 | 0.228 | 0.487 | 0.377 | 0.66 | 0.575 |  | 0.78 | 0.702 | 0.859 | 0.858 | 0.217 | 0.704 | 0.598
3 | COR-L23 | 0.555 | 0.68 | 0.651 | 0.551 | 0.651 | 0.769 | 0.721 | 0.654 | 0.87 | 0.986 | 0.945 | 0.875 | 0.358 | 0.33 | 0.309 | 0.275 | 0.408 | 0.771 | 0.955 | 0.329
4 | PC-14 | 0.674 | 0.796 | 0.827 | 0.0695 | 0.743 | 0.824 | 0.794 | 0.152 | 0.929 | 0.885 | 0.904 | 0.644 | 0.286 | 0.291 | 0.263 | 0.217 | 0.768 | 0.464 | 0.86 | 0.209
5 | NCI-H2087 | 0.186 | 0.182 | 0.217 | 0.191 | 0.259 | 0.547 | 0.527 | 0.489 | 0.887 | 1.01 | 1.06 | 0.818 | 0.412 | 0.625 | 0.516 | 0.503 | 0.208 |  | 0.97 | 0.56
6 | HCC-15 | 0.243 | 0.386 | 0.312 | 0.341 | 0.386 | 0.682 | 0.727 | 0.612 | 0.857 | 0.954 | 0.814 | 0.599 | 0.706 | 0.689 | 0.659 | 0.621 |  |  |  | 
7 | NCI-H2228 | 0.441 | 0.609 | 0.583 | 0.27 | 0.36 | 0.482 | 0.568 | 0.478 | 0.51 | 0.721 | 0.881 | 0.891 | 0.537 | 0.728 | 0.482 | 0.436 | 0.112 | 0.395 | 0.662 | 0.562
8 | NCI-H2126 | 0.417 | 0.467 | 0.533 | 0.402 |  | 0.644 | 0.688 | 0.557 | 0.658 | 0.685 | 0.645 | 0.593 | 0.757 | 0.894 | 0.825 | 0.794 | 0.536 |  |  | 0.933
9 | EMC-BAC-2 | 0.526 |  | 0.83 | 0.789 | 0.277 | 0.377 | 0.392 | 0.346 | 0.732 | 0.698 | 0.623 | 0.563 | 0.447 | 0.56 | 0.537 | 0.528 |  | 0.339 | 0.755 | 
10 | NCI-H520 | 0.62 | 0.642 | 0.845 | 0.557 | 0.181 | 0.321 | 0.266 | 0.232 | 0.799 | 1.04 | 0.992 | 1.16 | 0.278 | 0.363 | 0.326 | 0.366 | 0.692 | 0.276 | 0.9 | 0.349
11 | LXF-289 | 0.689 | 0.68 | 0.652 | 0.631 | 0.477 | 0.796 | 0.714 | 0.723 | 0.913 | 0.982 | 0.902 | 0.816 | 0.97 | 1.04 | 1.04 | 0.998 | 0.713 | 0.16 | 0.983 | 1.06
12 | EPLC-272H | 0.25 | 0.281 | 0.246 | 0.293 |  | 0.256 | 0.227 | 0.224 | 0.988 | 1.11 | 0.959 | 1.01 | 0.544 | 0.767 | 0.614 | 0.527 |  |  |  | 0.7
13 | NCI-H838 | 0.436 | 0.575 | 0.517 | 0.483 | 0.256 | 0.369 | 0.383 | 0.332 | 0.913 | 1.03 | 1.04 | 0.874 | 0.715 | 0.771 | 0.746 | 0.575 | 0.609 | 0.401 | 1.08 | 0.773
14 | NCI-H2405 | 0.409 |  | 0.52 | 0.438 | 0.382 | 0.655 | 0.649 | 0.604 | 0.805 | 0.918 | 0.973 | 0.768 | 0.763 |  | 0.854 | 0.754 |  | 0.441 |  | 
15 | LC-2-ad | 0.804 | 0.906 | 0.864 | 0.837 | 0.49 | 0.767 | 0.764 | 0.619 | 0.817 | 0.799 | 0.694 | 0.585 | 0.796 | 0.704 | 0.675 | 0.694 |  |  |  | 
16 | NCI-H3122 | 0.203 | 0.207 | 0.218 | 0.248 | 0.556 | 0.962 | 0.902 | 0.893 | 0.954 | 0.996 | 1.04 | 0.999 | 0.576 | 0.595 | 0.627 | 0.558 | 0.256 |  | 0.996 | 0.582
17 | NCI-H727 |  | 0.436 | 0.382 | 0.363 |  | 0.557 | 0.467 | 0.499 | 0.207 | 0.278 | 0.256 | 0.236 |  | 0.88 | 0.668 | 0.645 | 0.365 | 0.529 | 0.259 | 0.666
